The source of these data is patent publication US20250179017A1 (GUANGDONG NEWOPP BIOPHARMACEUTICALS CO., LTD., priority 2022, published 2025).

The structures appear in SMILES notation. pIC50: −log10 of the molar value.

T1 sequence (P43116 whole entry): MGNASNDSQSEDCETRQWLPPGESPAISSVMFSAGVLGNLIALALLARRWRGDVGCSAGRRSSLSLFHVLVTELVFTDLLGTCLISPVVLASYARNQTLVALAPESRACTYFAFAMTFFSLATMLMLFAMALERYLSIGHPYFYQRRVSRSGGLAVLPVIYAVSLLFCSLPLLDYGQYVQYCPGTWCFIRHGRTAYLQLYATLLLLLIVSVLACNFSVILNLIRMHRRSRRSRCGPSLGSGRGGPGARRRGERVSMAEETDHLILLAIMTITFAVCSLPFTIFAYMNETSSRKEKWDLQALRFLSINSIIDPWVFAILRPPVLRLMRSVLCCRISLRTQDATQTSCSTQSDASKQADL

This experiment has as its target T1, human EP2 (PTGER2) (Homo sapiens, UniProt P43116).
T1 construct: Cayman Chemical (Human EP2 Reporter Assay Kit)
The experiment can be described thus: EP2 antagonist assay (HEK-293 CNG membrane potential cAMP assay / 293T SEAP reporter assay, PGE2-stimulated). The format is cell-based. The conditions noted are these: EP2 antagonist activity; concentration for 50% inhibition of signal compared to DMSO. The source says:
1. The HEK-293 CNG (Cyclic Nucleotide Gated) cell line expressing a modified CNG channel that leads to cell membrane depolarization in response to elevated intracellular cAMP levels, which can be measured using a fluorescent membrane potential dye, was engineered to express human EP2 (PTGER2) or EP4 (EP4R). The resulting cell line ACTOne™ PTGER2 or ACTOne™ EP4R as well as the fluorescent membrane potential dye were purchased from eEnzyme (Gaithersburg, MD, US) and used in this assay. Briefly, cells were plated at 1.2×10^4 cells/well in 20 μL DMEM supplemented with 2% Fetal Bovine Serum (FBS, VWR International), 1x Penicillin/Streptomycin (GenClone), 0.2 μg/mL puromycin (InvivoGen) and 50 μg/mL G418 (InvivoGen) on a 384 well plate (Greiner). The next day, cells were dye-loaded with 20 μL/well of 1x Dye-loading solution (eENZYME) following the manufacturer's instruction. After 2 hours of incubation at room temperature (RT) in the dark, a pre-read was made to obtain the background signals using CLARIOstar plate reader (BMG LABTECH, Germany) with the following filter settings: excitation=530/20 nm, emission=590/20 nm. Next, a serial dilution of compound (plus a DMSO control) were added to the plate (5 μL/well) and the reaction was incubated at RT for 15 min before adding 5 μL of PGE2 to every well for a final concentration of 5 nM. All wells were duplicated. The plate was then further incubated at RT for 30 min prior to a final read with the same machine settings. Background-subtracted signals were used to calculate IC50 values.
2. Human EP2 and EP4 Reporter Assay Kits were purchased from Cayman Chemical (Ann Arbor, MI, USA). The assay was performed following the provided User Manual. Briefly, a reverse transfection was performed by seeding 6.0×10^4 of 293T cells (ATCC) to each well of the provided Strip Plate coated with a proprietary transfection complex containing DNA constructs for expressing human EP2 or EP4 and a cAMP response element regulated secreted alkaline phosphatase (SEAP) reporter, in 200 μL DMEM supplemented with 2% FBS and incubated for 20-24 hours at 37° C. with 5% CO2. After the incubation, the culture medium was carefully removed, and the cells were replenished with 150 μL pre-warmed serum-free medium. PGE2 and test compounds were prepared together at 4x the desired final concentration, and 50 μL was added to each assigned well with the final concentration of 13 nM and 2 nM PGE2 for EP2 and EP4 assay, respectively. After 6-8 hours of incubation, 10 μL media from each well was transferred to corresponding well of a new plate, which was then sealed and incubated at 65° C. for 30 min. The plate was then cooled down to RT and 50 μL SEAP substrate was added to each well. Luminescence signal was measured using a CLARIOstar plate reader.
The IC50 value was determined as the concentration for 50% inhibition of signal compared to DMSO (A: IC50 […]; B: IC50 between 100 nM and 1,000 nM; C: IC50≥1,000 nM).
On to `O=C(O)c1ccc(CNC(=O)c2cc(Nc3ccccc3)cc3ccn(Cc4ccc(C(F)(F)F)cc4)c23)cc1` [Example 47, 4-((5-(phenylamino)-1-(4-(trifluoromethyl)benzyl)-1H-indole-7-carboxamido)methyl)benzoic acid], for which the pIC50 was no more than 6.00.

Consider `O=C(O)c1ccc(C2(NC(=O)c3cc(Oc4ccccc4)cc4ccn(Cc5ccc(C(F)(F)F)cc5)c34)CC2)cc1` [Example 49, 4-(1-(5-phenoxy-1-(4-(trifluoromethyl)benzyl)-1H-indole-7-carboxamido)cyclopropyl)benzoic acid], for which the pIC50 is 6.00 to 7.00.

For the compound `C[C@H](NC(=O)c1cc(-c2ccc(F)c(F)c2)cc2ccn(Cc3ccc(C(F)(F)F)cc3)c12)c1ccc(C(=O)O)cc1` [Example 53], the pIC50 was greater than 7.00.

As for `C[C@H](NC(=O)c1cc(-c2cc(F)cc(F)c2)cc2ccn(Cc3ccc(C(F)(F)F)cc3)c12)c1ccc(C(=O)O)cc1` [Example 54, (S)-4-(1-(5-(3,5-difluorophenyl)-1-(4-(trifluoromethyl)benzyl)-1H-indole-7-carboxamido)ethyl) benzoic acid], the negative-log IC50 (pIC50) is greater than 7.00.

For `O=C(O)c1ccc(CNC(=O)c2ccc(N3CCOCC3)c3ccn(Cc4ccc(C(F)(F)F)cc4)c23)cc1` [Example 58, 4-((4-morpholino-1-(4-(trifluoromethyl)benzyl)-1H-indole-7-carboxamido)methyl)benzoic acid], the negative logarithm of the IC50 (pIC50) was no more than 6.00.

For `CN1CCN(c2ccc(C(=O)NCc3ccc(C(=O)O)cc3)c3c2ccn3Cc2ccc(C(F)(F)F)cc2)CC1` [Example 59, 4-((4-(4-methylpiperazin-1-yl)-1-(4-(trifluoromethyl)benzyl)-1H-indole-7-carboxamido)methyl)benzoic acid], the negative logarithm of the IC50 (pIC50) was no more than 6.00.

`N#Cc1cccc(Nc2ccc(C(=O)NC3(c4ccc(C(=O)O)cc4)CC3)c3c2ccn3Cc2ccc(C(F)(F)F)cc2)c1` [Example 61, 4-(1-(4-((3-cyanophenyl)amino)-1-(4-(trifluoromethyl)benzyl)-1H-indole-7-carboxamido)cyclopropyl)benzoic acid] showed a negative-log IC50 (pIC50) of 6.00 to 7.00.

For the compound `N#Cc1ccc(Nc2ccc(C(=O)NC3(c4ccc(C(=O)O)cc4)CC3)c3c2ccn3Cc2ccc(C(F)(F)F)cc2)cc1` [Example 62, 4-(1-(4-((4-cyanophenyl)amino)-1-(4-(trifluoromethyl)benzyl)-1H-indole-7-carboxamido)cyclopropyl)benzoic acid], the pIC50 is no more than 6.00.

As for `O=C(O)c1ccc(C2(NC(=O)c3ccc(Nc4ccc(F)c(F)c4)c4ccn(Cc5ccc(C(F)(F)F)cc5)c34)CC2)cc1` [Example 63, 4-(1-(4-((3,4-difluorophenyl)amino)-1-(4-(trifluoromethyl)benzyl)-1H-indole-7-carboxamido)cyclopropyl)benzoic acid], the pIC50 is 6.00 to 7.00.

`O=C(O)c1ccc(C2(NC(=O)c3ccc(Nc4ccc(F)cc4)c4ccn(Cc5ccc(C(F)(F)F)cc5)c34)CC2)cc1` [Example 64, 4-(1-(4-((4-fluorophenyl)amino)-1-(4-(trifluoromethyl)benzyl)-1H-indole-7-carboxamido)cyclopropyl)benzoic acid] gave a negative-log IC50 (pIC50) greater than 7.00.

In the case of `O=C(O)c1ccc(C2(NC(=O)c3ccc(Nc4ccc(F)c(Cl)c4)c4ccn(Cc5ccc(C(F)(F)F)cc5)c34)CC2)cc1` [Example 65, 4-(1-(4-((3-chloro-4-fluorophenyl)amino)-1-(4-(trifluoromethyl)benzyl)-1H-indole-7-carboxamido)cyclopropyl)benzoic acid], the pIC50 was 6.00 to 7.00.

The compound `O=C(O)c1ccc(C2(NC(=O)c3ccc(Nc4cc(F)cc(F)c4)c4ccn(Cc5ccc(C(F)(F)F)cc5)c34)CC2)cc1` [Example 66, 4-(1-(4-((3,5-difluorophenyl)amino)-1-(4-(trifluoromethyl)benzyl)-1H-indole-7-carboxamido)cyclopropyl)benzoic acid] showed a pIC50 of 6.00 to 7.00.

In the case of `O=C(O)c1ccc(C2(NC(=O)c3ccc(Nc4cccc(F)c4)c4ccn(Cc5ccc(C(F)(F)F)cc5)c34)CC2)cc1` [Example 67, 4-(1-(4-((3-fluorophenyl)amino)-1-(4-(trifluoromethyl)benzyl)-1H-indole-7-carboxamido)cyclopropyl)benzoic acid], the negative logarithm of the IC50 (pIC50) was greater than 7.00.

With `N#Cc1cccc(Nc2ccc(C(=O)NCc3ccc(C(=O)O)cc3)c3c2ccn3Cc2ccc(C(F)(F)F)cc2)c1` [Example 68, 4-((4-((3-cyanophenyl)amino)-1-(4-(trifluoromethyl)benzyl)-1H-indole-7-carboxamido)methyl)benzoic acid], the pIC50 was greater than 7.00.

`O=C(O)c1ccc(CNC(=O)c2ccc(Nc3ccc(F)c(Cl)c3)c3ccn(Cc4ccc(C(F)(F)F)cc4)c23)cc1` [Example 70] had a pIC50 greater than 7.00.

For `O=C(O)c1ccc(CNC(=O)c2ccc(Nc3ccc(Cl)c(F)c3)c3ccn(Cc4ccc(C(F)(F)F)cc4)c23)cc1` [Example 71, ((4-((4-chloro-3-fluorophenyl)amino)-1-(4-(trifluoromethyl)benzyl)-1H-indole-7-carboxamido)methyl)benzoic acid acid], the pIC50 is 6.00 to 7.00.

The compound `O=C(O)c1ccc(CNC(=O)c2ccc(Nc3cccc(F)c3)c3ccn(Cc4ccc(C(F)(F)F)cc4)c23)cc1` [Example 72, 4-((4-((3-fluorophenyl)amino)-1-(4-(trifluoromethyl)benzyl)-1H-indole-7-carboxamido)methyl)benzoic acid] had a pIC50 greater than 7.00.

For the compound `O=C(O)c1ccc(CNC(=O)c2ccc(Nc3ccc(Cl)cc3)c3ccn(Cc4ccc(C(F)(F)F)cc4)c23)cc1` [Example 73, ((4-((4-chlorophenyl)amino)-1-(4-(trifluoromethyl)benzyl)-1H-indole-7-carboxamido)methyl)benzoic acid], the pIC50 was 6.00 to 7.00.

For `O=C(O)c1ccc(CNC(=O)c2cc(-c3cccc(Cl)c3)cc3ccn(Cc4ccc(C(F)(F)F)cc4)c23)cc1` [Example 75, 4-((5-(3-chlorophenyl)-1-(4-(trifluoromethyl)benzyl)-1H-indole-7-carboxamido)methyl)benzoic acid], the pIC50 was greater than 7.00.

`N#Cc1cc(-c2cc(C(=O)NCc3ccc(C(=O)O)cc3)c3c(ccn3Cc3ccc(C(F)(F)F)cc3)c2)ccc1F` [Example 79, 4-((5-(3-cyano-4-fluorophenyl)-1-(4-(trifluoromethyl)benzyl)-1H-indole-7-carboxamido)methyl)benzoic] showed a pIC50 of 6.00 to 7.00.

The compound `N#Cc1ccc(-c2cc(C(=O)NCc3ccc(C(=O)O)cc3)c3c(ccn3Cc3ccc(C(F)(F)F)cc3)c2)cc1` [Example 81, 4-((5-(4-cyanophenyl)-1-(4-(trifluoromethyl)benzyl)-1H-indole-7-carboxamido)methyl)benzoic acid] had a negative-log IC50 (pIC50) greater than 7.00.

Turning to `NC(=O)c1cccc(-c2cc(C(=O)NCc3ccc(C(=O)O)cc3)c3c(ccn3Cc3ccc(C(F)(F)F)cc3)c2)c1` [Example 82, 4-((5-(3-carbamoylphenyl)-1-(4-(trifluoromethyl)benzyl)-1H-indole-7-carboxamido)methyl)benzoic acid], the negative-log IC50 (pIC50) was greater than 7.00.

`NS(=O)(=O)c1cccc(-c2cc(C(=O)NCc3ccc(C(=O)O)cc3)c3c(ccn3Cc3ccc(C(F)(F)F)cc3)c2)c1` [Example 83, 4-((5-(3-sulfamoylphenyl)-1-(4-(trifluoromethyl)benzyl)-1H-indole-7-carboxamido)methyl)benzoic acid] gave a pIC50 greater than 7.00.
